Test results reported in paper PMC4131466, “Antidepressant Fluoxetine Modulates the In Vitro Inhibitory Activity of Buffalo Brain Cystatin: A Thermodynamic Study Using UV and Fluorescence Techniques” (Biotechnology Research International, 2014).

Target: T1, buffalo brain cystatin (BC)
T1 construct: gene CST3
Experiment: intrinsic fluorescence quenching, log-log plot
Type: binding, Bubalus bubalis
Settings: 1 μM BC, 50 mM sodium phosphate pH 7.5, 298 K, 30 min incubation, excitation 280 nm; n = 0.79
From the text: intrinsic fluorescence quenching, log-log plot on buffalo brain cystatin (BC)

Question: `CNCCC(Oc1ccc(C(F)(F)F)cc1)c1ccccc1` (stereo not shown) [Fluoxetine] was tested. Which “K (binding constant) mol^-1” value did it give?
Answer: 5.0317e+06 mol⁻¹
